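1) Cells in 96-well plates. 2) Compound, 48 h, 5 concentrations. 3) Linear interpolation between surrounding doses. 4) Unreached endpoint = highest concentration. GI50 is the concentration that inhibits growth by half.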 Active and inactive are the calls of the source. No stated cut-off is given here; in the data, active = GI50 up to about 1.1 µM and inactive = higher.
What was measured:
Test in all cases: inhibition of tumour cell growth, NCI panel, 48 h
UO-31 = test system: UO-31
MOLT-4 = test system: MOLT-4
SK-MEL-2 = test system: SK-MEL-2
NCI/ADR-RES = test system: NCI/ADR-RES
Hs-578T = test system: Hs-578T
EKVX = test system: EKVX
HCT-116 = test system: HCT-116
NCI-H522 = test system: NCI-H522
ACHN = test system: ACHN
786-0 = test system: 786-0
SF-295 = test system: SF-295
HOP-92 = test system: HOP-92
SNB-75 = test system: SNB-75
LOX IMVI = test system: LOX IMVI
OVCAR-3 = test system: OVCAR-3
HT-29 = test system: HT-29
U-251 = test system: U-251
SK-MEL-28 = test system: SK-MEL-28
SK-OV-3 = test system: SK-OV-3
M14 = test system: M14
MDA-MB-231 = test system: MDA-MB-231
A549 = test system: A549
SF-539 = test system: SF-539
UACC-62 = test system: UACC-62
COLO 205 = test system: COLO 205
SNB-19 = test system: SNB-19
HL-60 = test system: HL-60
BT-549 = test system: BT-549
SW-620 = test system: SW-620
OVCAR-4 = test system: OVCAR-4
IGROV-1 = test system: IGROV-1
KM12 = test system: KM12
NCI-H23 = test system: NCI-H23
DU-145 = test system: DU-145
NCI-H460 = test system: NCI-H460
MDA-MB-435 = test system: MDA-MB-435
CAKI-1 = test system: CAKI-1
HOP-62 = test system: HOP-62
NCI-H226 = test system: NCI-H226
Malme-3M = test system: Malme-3M
SN12C = test system: SN12C
OVCAR-5 = test system: OVCAR-5
RXF 393 = test system: RXF 393
SK-MEL-5 = test system: SK-MEL-5
SF-268 = test system: SF-268
PC-3 = test system: PC-3
T47D = test system: T47D
MDA-N = test system: MDA-N
UACC-257 = test system: UACC-257
TK-10 = test system: TK-10
CCRF-CEM = test system: CCRF-CEM
HCT-15 = test system: HCT-15
OVCAR-8 = test system: OVCAR-8
RPMI-8226 = test system: RPMI-8226
A498 = test system: A498
MCF7 = test system: MCF7
K562 = test system: K562
SR = test system: SR
HCC 2998 = test system: HCC 2998

CCCCCCCCCCCCCCCCCCNc1ccn(C2OC(CO)C(OP(=O)(O)OCC3CCC(n4ccc(N)nc4=O)O3)C2O)c(=O)n1 (configuration not stated)
GI50 (UO-31): 22.2 µM (inactive)
GI50 (MOLT-4): 3.9 µM (inactive)
GI50 (SK-MEL-2): > 100 µM (inactive)
GI50 (NCI/ADR-RES): > 100 µM (inactive)
GI50 (Hs-578T): > 100 µM (inactive)
GI50 (EKVX): > 100 µM (inactive)
GI50 (HCT-116): 66.5 µM (inactive)
GI50 (NCI-H522): 28.6 µM (inactive)
GI50 (ACHN): > 100 µM (inactive)
GI50 (786-0): > 100 µM (inactive)
GI50 (SF-295): > 100 µM (inactive)
GI50 (HOP-92): > 100 µM (inactive)
GI50 (SNB-75): 62.2 µM (inactive)
GI50 (LOX IMVI): 32.3 µM (inactive)
GI50 (OVCAR-3): > 100 µM (inactive)
GI50 (HT-29): 42.5 µM (inactive)
GI50 (U-251): > 100 µM (inactive)
GI50 (SK-MEL-28): 61.5 µM (inactive)
GI50 (SK-OV-3): > 100 µM (inactive)
GI50 (M14): 42.3 µM (inactive)
GI50 (MDA-MB-231): > 100 µM (inactive)
GI50 (A549): > 100 µM (inactive)
GI50 (SF-539): 32.7 µM (inactive)
GI50 (UACC-62): > 100 µM (inactive)
GI50 (COLO 205): 45.9 µM (inactive)
GI50 (SNB-19): > 100 µM (inactive)
GI50 (HL-60): 17.1 µM (inactive)
GI50 (BT-549): 30.8 µM (inactive)
GI50 (SW-620): 46.3 µM (inactive)
GI50 (OVCAR-4): 93.8 µM (inactive)
GI50 (IGROV-1): 27.2 µM (inactive)
GI50 (KM12): 36.3 µM (inactive)
GI50 (NCI-H23): > 100 µM (inactive)
GI50 (DU-145): > 100 µM (inactive)
GI50 (NCI-H460): 55.8 µM (inactive)
GI50 (MDA-MB-435): > 100 µM (inactive)
GI50 (CAKI-1): > 100 µM (inactive)
GI50 (HOP-62): > 100 µM (inactive)
GI50 (NCI-H226): > 100 µM (inactive)
GI50 (Malme-3M): 21.1 µM (inactive)
GI50 (SN12C): > 100 µM (inactive)
GI50 (OVCAR-5): 57.7 µM (inactive)
GI50 (RXF 393): 15.6 µM (inactive)
GI50 (SK-MEL-5): > 100 µM (inactive)
GI50 (SF-268): 27.9 µM (inactive)
GI50 (PC-3): 17.4 µM (inactive)
GI50 (T47D): 83.4 µM (inactive)
GI50 (MDA-N): > 100 µM (inactive)
GI50 (UACC-257): > 100 µM (inactive)
GI50 (TK-10): 42.1 µM (inactive)
GI50 (CCRF-CEM): 16.7 µM (inactive)
GI50 (HCT-15): 40.3 µM
GI50 (OVCAR-8): > 100 µM (inactive)

Cc1ccc2[nH]c3c(c(=O)n(C)c(=O)n3C)c2c1
GI50 (UO-31): > 100 µM (inactive)
GI50 (MOLT-4): > 100 µM (inactive)
GI50 (SK-MEL-2): > 100 µM (inactive)
GI50 (NCI/ADR-RES): > 100 µM (inactive)
GI50 (Hs-578T): > 100 µM (inactive)
GI50 (EKVX): > 100 µM (inactive)
GI50 (HCT-116): > 100 µM (inactive)
GI50 (NCI-H522): > 100 µM (inactive)
GI50 (ACHN): > 100 µM (inactive)
GI50 (RPMI-8226): > 100 µM (inactive)
GI50 (786-0): > 100 µM (inactive)
GI50 (A498): > 100 µM (inactive)
GI50 (SF-295): > 100 µM (inactive)
GI50 (HOP-92): > 100 µM (inactive)
GI50 (SNB-75): > 100 µM (inactive)
GI50 (MCF7): > 100 µM (inactive)
GI50 (LOX IMVI): > 100 µM (inactive)
GI50 (HT-29): > 100 µM (inactive)
GI50 (U-251): > 100 µM (inactive)
GI50 (SK-OV-3): > 100 µM (inactive)
GI50 (M14): > 100 µM (inactive)
GI50 (MDA-MB-231): > 100 µM (inactive)
GI50 (A549): > 100 µM (inactive)
GI50 (SF-539): > 100 µM (inactive)
GI50 (UACC-62): > 100 µM (inactive)
GI50 (K562): > 100 µM (inactive)
GI50 (COLO 205): > 100 µM (inactive)
GI50 (SNB-19): > 100 µM (inactive)
GI50 (HL-60): > 100 µM (inactive)
GI50 (BT-549): > 100 µM (inactive)
GI50 (SW-620): > 100 µM (inactive)
GI50 (OVCAR-4): > 100 µM (inactive)
GI50 (IGROV-1): > 100 µM (inactive)
GI50 (KM12): > 100 µM (inactive)
GI50 (NCI-H23): > 100 µM (inactive)
GI50 (DU-145): > 100 µM (inactive)
GI50 (MDA-MB-435): > 100 µM (inactive)
GI50 (CAKI-1): > 100 µM (inactive)
GI50 (HOP-62): > 100 µM (inactive)
GI50 (NCI-H226): > 100 µM (inactive)
GI50 (Malme-3M): > 100 µM (inactive)
GI50 (SN12C): > 100 µM (inactive)
GI50 (OVCAR-5): > 100 µM (inactive)
GI50 (RXF 393): > 10 µM (inactive)
GI50 (SK-MEL-5): > 100 µM (inactive)
GI50 (SF-268): > 100 µM (inactive)
GI50 (T47D): > 100 µM (inactive)
GI50 (MDA-N): > 100 µM (inactive)
GI50 (UACC-257): > 100 µM (inactive)
GI50 (TK-10): > 100 µM (inactive)
GI50 (CCRF-CEM): > 100 µM (inactive)
GI50 (HCT-15): > 100 µM
GI50 (OVCAR-8): > 100 µM (inactive)
GI50 (SR): 84.9 µM (inactive)
GI50 (HCC 2998): > 100 µM (inactive)

Cc1ccc(S(=O)(=O)c2[nH]cc(/C(=C\C3CCCCC3)[N+](=O)[O-])c2C2CCCCC2)cc1
GI50 (UO-31): 0.493 µM (active)
GI50 (MOLT-4): 0.324 µM (active)
GI50 (SK-MEL-2): 0.377 µM (active)
GI50 (NCI/ADR-RES): 0.426 µM (active)
GI50 (Hs-578T): 0.324 µM (active)
GI50 (EKVX): 0.354 µM (active)
GI50 (HCT-116): 0.216 µM (active)
GI50 (NCI-H522): 0.208 µM (active)
GI50 (ACHN): 0.366 µM (active)
GI50 (RPMI-8226): 0.251 µM (active)
GI50 (786-0): 0.199 µM (active)
GI50 (HOP-92): 0.292 µM (active)
GI50 (SNB-75): 1.82 µM (inactive)
GI50 (LOX IMVI): 0.202 µM (active)
GI50 (OVCAR-3): 0.27 µM (active)
GI50 (HT-29): 0.497 µM (active)
GI50 (U-251): 0.653 µM (active)
GI50 (SK-MEL-28): 0.802 µM (active)
GI50 (M14): 0.236 µM (active)
GI50 (MDA-MB-231): 0.217 µM (active)
GI50 (A549): 1.71 µM (inactive)
GI50 (SF-539): 0.462 µM (active)
GI50 (UACC-62): 0.234 µM (active)
GI50 (K562): 0.251 µM (active)
GI50 (COLO 205): 0.25 µM (active)
GI50 (SNB-19): 1.75 µM (inactive)
GI50 (BT-549): 0.28 µM (active)
GI50 (SW-620): 0.376 µM (active)
GI50 (OVCAR-4): 0.388 µM (active)
GI50 (IGROV-1): 0.314 µM (active)
GI50 (KM12): 1.79 µM (inactive)
GI50 (NCI-H23): 0.542 µM (active)
GI50 (DU-145): 0.596 µM (active)
GI50 (NCI-H460): 1.22 µM (inactive)
GI50 (MDA-MB-435): 0.398 µM (active)
GI50 (CAKI-1): 0.22 µM (active)
GI50 (HOP-62): 1.41 µM (inactive)
GI50 (NCI-H226): 0.832 µM (active)
GI50 (Malme-3M): 0.564 µM (active)
GI50 (SN12C): 0.211 µM (active)
GI50 (OVCAR-5): 0.822 µM (active)
GI50 (RXF 393): 0.196 µM (active)
GI50 (SK-MEL-5): 0.318 µM (active)
GI50 (SF-268): 0.414 µM (active)
GI50 (PC-3): 0.472 µM (active)
GI50 (T47D): 0.303 µM (active)
GI50 (MDA-N): 0.301 µM (active)
GI50 (UACC-257): 0.393 µM (active)
GI50 (TK-10): 0.544 µM (active)
GI50 (CCRF-CEM): 0.272 µM (active)
GI50 (HCT-15): 0.199 µM
GI50 (OVCAR-8): 0.368 µM (active)
GI50 (SR): 0.281 µM (active)
GI50 (HCC 2998): 0.682 µM (active)

From ChEMBL document CHEMBL1201862, “PubChem BioAssay data set” (2004)
